Measured values: patent US8063034B2, “Oxadiazole derivatives and thiadiazole derivatives having neovascularization inhibitory activity” (Santen Pharmaceutical Co., Ltd., priority 2007, dated 2011)
Where a name gives a salt, the structure may show the parent alone.

The compounds below were run against T1, tyrosine kinase (KDR) (Homo sapiens, UniProt P35968) (assay: Evaluation test of inhibitory effect of tyrosine kinase (KDR) activity, ELISA method (CARNABIO SCIENCE kit)). Conditions: 4 mg/L test compound, 1 μM ATP, substrate 250 nM, 1 hour at room temperature, absorbance 450 nm; read-out: tyrosine kinase inhibition rates (% inhibition).
T1 construct: purchased CARNABIO SCIENCE Co. Ltd. JAPAN
T1 sequence (P35968 790-1356 limits assumed): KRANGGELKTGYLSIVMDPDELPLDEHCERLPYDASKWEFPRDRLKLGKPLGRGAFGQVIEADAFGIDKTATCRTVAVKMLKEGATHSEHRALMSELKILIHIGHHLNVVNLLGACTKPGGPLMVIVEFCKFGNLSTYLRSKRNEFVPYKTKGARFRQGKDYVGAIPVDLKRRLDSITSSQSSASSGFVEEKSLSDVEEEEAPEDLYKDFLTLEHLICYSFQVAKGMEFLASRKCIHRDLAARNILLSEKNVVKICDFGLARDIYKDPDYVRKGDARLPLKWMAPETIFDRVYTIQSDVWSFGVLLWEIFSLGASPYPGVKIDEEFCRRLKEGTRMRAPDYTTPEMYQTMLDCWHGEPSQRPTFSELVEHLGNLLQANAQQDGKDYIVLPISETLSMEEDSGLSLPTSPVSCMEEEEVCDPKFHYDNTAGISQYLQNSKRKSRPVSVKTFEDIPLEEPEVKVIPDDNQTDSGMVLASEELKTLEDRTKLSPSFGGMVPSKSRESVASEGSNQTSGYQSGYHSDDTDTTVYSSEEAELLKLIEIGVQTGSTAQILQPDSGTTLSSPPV
Format: biochemical
Protocol: In order to find usefulness of the present compounds, a test of inhibitory effect of tyrosine kinase (KDR) activity was conducted on the present compounds using an evaluation system for kinase (KDR) inhibitory activity by way of the ELISA method which is the method for evaluating neovascularization inhibition effect of drugs, and the neovascularization inhibition effects were evaluated.
Evaluation Test of Inhibitory Effect of Tyrosine Kinase (KDR) Activity
As one of the widely-used methods of evaluating inhibitory effect of tyrosine kinase (KDR) activity by drugs, the ELISA method has been reported. The inhibitory effect of tyrosine kinase (KDR) activity of each of the present compounds was evaluated using the commercially available kit (purchased from CARNABIO SCIENCE Co. Ltd. JAPAN) for evaluating inhibitory effect of tyrosine kinase (KDR) activity.
(Preparation of Test Compound Solution)
Each test compound (2 mg) were dissolved in dimethyl sulfoxide (hereinafter abbreviated as DMSO), and the 2 mg/ml stock solution were prepared. Each obtained solution was diluted with 8 μL of DMSO. Each solution (0.4 mg/ml compound) was diluted 25 times with assay buffer to give the test compound solution. For the vehicle, 4% DMSO-Assay Buffer solution was prepared.
(Preparation of ATP/Substrate Solution)
Thaw commercially available ATP/Substrate (purchased from CARNABIO SCIENCE Co. Ltd. JAPAN), then 250 μL of it was added to 1 mL of assay buffer to give ATP/substrate solution. ATP/substrate solution was kept on ice before use.
(Preparation of Enzyme Solution)
7 μL of commercially available tyrosine kinase (purchased from CARNABIO SCIENCE Co. Ltd. JAPAN) was added to 2.793 mL of assay buffer to give enzyme solution. Enzyme solution was kept on ice before use.
(Preparation of Blocking Buffer)
BSA (Sigma, A-7030) was dissolved with wash buffer (50 mM Tris-HCl (pH7.5), 150 mM NaCl, 0.2% Tween-20) to give x100 BSA solution, and the solution was kept at −80° C. Thaw 400 μL of x100 BSA solution before use, it was added to 40 mL of wash buffer to give blocking buffer.
(Preparation of Detection Mixture)
40 μL of commercially available HRP-conjugated antibody (purchased from CARNABIO SCIENCE Co. Ltd. JAPAN) was added to 12 mL of blocking buffer to give detection mixture.
(Method of Test and Method of Measurement)
1) Add 10 μL of each test compound solution, 10 μL of ATP/substrate solution and 20 μL of enzyme solution to each well of ELISA plate (streptavidin-coated 96-well plate, PerkinElmer, 4009-0010). Incubate for 1 hour at room temperature (4 mg/L test compound solution, 15 mM Tris-HCl (pH7.5), 0.01% Tween 20, 2 mM DTT, concentration of substrate: 250 nM, 1 μM ATP, 5 mM Mg). For the vehicle, the above mentioned 4% DMSO-assay buffer solution was added instead of test compound solution.
2) Aspirate each well and wash with wash buffer, repeating the process three times for four washes.
3) Add 200 μL of blocking buffer to each well and cover the plate and incubate for 30 minutes.
4) Aspirate each well, add 100 μL of detection mixture to each well and incubate the plate for 30 minutes.
5) Aspirate each well and wash with wash buffer 4 times.
6) Add 100 μL of color reagent to each well. Incubate for 5 minutes and then add 0.1 M H2SO4 to each well.
7) Measure the absorbance of each well, using a plate reader set to […].
(Calculation of Kinase Inhibition Rate)
Rate of the reaction positive control well with kinase was considered 0% inhibition, rate of the reaction negative control well with assay buffer instead of kinase was considered 100% inhibition, and so the inhibition rates of test compound well were calculated based on the absorbance of them.
A: Absorbance of the reaction positive control well
B: Absorbance of the reaction negative control well
C: Absorbance of the test compound well
tyrosine kinase inhibition rates (%)=100 [1-(C-A)/(B-A)]
For c1ccc(Nc2nnc(-c3ccccc3OCc3ccncc3)o2)cc1 [Compound 1-1, N-Phenyl-5-(2-(pyridin-4-yl)methoxyphenyl)-1,3,4-oxadiazol-2-amine], the inhibition at 4 µg/mL was 55%. Work on FC(F)(F)c1cccc(Nc2nnc(-c3ccccc3OCc3ccncc3)o2)c1 [Compound 1-3, 5-(2-(Pyridin-4-yl)methoxyphenyl)-N-(3-trifluoromethylphenyl)-1,3,4-oxadiazol-2-amine] yielded an inhibition at 4 µg/mL of 80%. c1ccc(Nc2nnc(-c3ccccc3OCc3ccnc4ccccc34)o2)cc1 [Compound 1-4, N-Phenyl-5-(2-(quinolin-4-yl)methoxyphenyl)-1,3,4-oxadiazol-2-amine] was tested, and the inhibition at 4 µg/mL was 75%. CC(=O)Nc1cc(COc2ccccc2-c2nnc(Nc3ccccc3)o2)ccn1 [Compound 1-6, 5-(2-(2-Acetamidopyridin-4-yl)methoxyphenyl)-N-phenyl-1,3,4-oxadiazol-2-amine] gave an inhibition at 4 µg/mL of 65%. CC(C)(C)OC(=O)Nc1cc(CSc2ncccc2-c2nnc(Nc3ccccc3)o2)ccn1 [Compound 1-7, 5-(2-(2-t-Butoxycarbonylaminopyridin-4-yl)methylthiopyridin-3-yl)-N-phenyl-1,3,4-oxadiazol-2-amine] was tested, and the inhibition at 4 µg/mL was 60%. In the case of c1ccc(Nc2nnc(-c3cccnc3SCc3ccncc3)o2)cc1 [Compound 1-10, N-Phenyl-5-(2-(pyridin-4-yl)methylthiopyridin-3-yl)-1,3,4-oxadiazol-2-amine], the inhibition at 4 µg/mL is reported as 76%. For c1ccc(Nc2nnc(-c3cccnc3SCc3ccnc4ccccc34)o2)cc1 [Compound 1-13, N-Phenyl-5-(2-(quinolin-4-yl)methylthiopyridin-3-yl)-1,3,4-oxadiazol-2-amine], the inhibition at 4 µg/mL was 72%. Clc1ccc(Nc2nnc(-c3cccnc3SCc3ccnc4ccccc34)o2)cc1 [Compound 1-14, N-(4-Chlorophenyl)-5-(2-(quinolin-4-yl)methylthiopyridin-3-yl)-1,3,4-oxadiazol-2-amine] showed an inhibition at 4 µg/mL of 90%. With CC(=O)Nc1cc(CSc2ncccc2-c2nnc(Nc3ccccc3)o2)ccn1 [Compound 1-16, 5-(2-(2-Acetamidopyridin-4-yl)methylthiopyridin-3-yl)-N-phenyl-1,3,4-oxadiazol-2-amine] the inhibition at 4 µg/mL was 95%. For CC(=O)Nc1cc(CSc2ncccc2-c2nnc(Nc3ccc(Cl)cc3)o2)ccn1 [Compound 1-17, 5-(2-(2-Acetamidopyridin-4-yl)methylthiopyridin-3-yl)-N-(4-chlorophenyl)-1,3,4-oxadiazol-2-amine], the inhibition at 4 µg/mL was 94%. In the case of CC(=O)Nc1cc(CSc2ncccc2-c2nnc(Nc3cccc(C(F)(F)F)c3)o2)ccn1 [Compound 1-18, 5-(2-(2-Acetamidopyridin-4-yl)methylthiopyridin-3-yl)-N-(3-trifluoromethylphenyl)-1,3,4-oxadiazol-2-amine], the inhibition at 4 µg/mL is reported as 99%. In the case of CNC(=O)c1cc(CSc2ncccc2-c2nnc(Nc3ccc(Cl)cc3)o2)ccn1 [Compound 1-20, N-(4-Chlorophenyl)-5-(2-(2-methylaminocarbonylpyridin-4-yl)methylthiopyridin-3-yl)-1,3,4-oxadiazol-2-amine], the inhibition at 4 µg/mL is reported as 86%. In the case of CNC(=O)c1cc(CSc2ncccc2-c2nnc(Nc3cccc(C(F)(F)F)c3)o2)ccn1 [Compound 1-21, 5-(2-(2-Methylaminocarbonylpyridin-4-yl)methylthiopyridin-3-yl)-N-(3-trifluoromethylphenyl)-1,3,4-oxadiazol-2-amine], the inhibition at 4 µg/mL is reported as 93%. Compound c1ccc(Nc2nnc(-c3ccccc3SCc3ccncc3)o2)cc1 [Compound 1-32, N-Phenyl-5-(2-(pyridin-4-yl)methylthiophenyl)-1,3,4-oxadiazol-2-amine] has an inhibition at 4 µg/mL of 55%. FC(F)(F)c1cccc(Nc2nnc(-c3ccccc3SCc3ccncc3)o2)c1 [Compound 1-33, 5-(2-(Pyridin-4-yl)methylthiophenyl)-N-(3-trifluoromethylphenyl)-1,3,4-oxadiazol-2-amine] gave an inhibition at 4 µg/mL of 95%. CC(C)(C)c1ccc(Nc2nnc(-c3ccccc3SCc3ccncc3)o2)cc1 [Compound 1-34, N-(4-t-Butylphenyl)-5-(2-(pyridin-4-yl)methylthiophenyl)-1,3,4-oxadiazol-2-amine] was tested, and the inhibition at 4 µg/mL was 86%. Work on c1ccc(Nc2nnc(-c3ccccc3SCc3ccncc3)s2)cc1 [Compound 1-35, N-Phenyl-5-(2-(pyridin-4-yl)methylthiophenyl)-1,3,4-thiadiazol-2-amine] yielded an inhibition at 4 µg/mL of 58%. Clc1ccc(Nc2nnc(-c3ccccc3SCc3ccncc3)s2)cc1 [Compound 1-36, N-(4-Chlorophenyl)-5-(2-(pyridin-4-yl)methylthiophenyl)-1,3,4-thiadiazol-2-amine] showed an inhibition at 4 µg/mL of 68%. Clc1cccc(Nc2nnc(-c3ccccc3SCc3ccncc3)s2)c1 [Compound 1-37, N-(3-Chlorophenyl)-5-(2-(pyridin-4-yl)methylthiophenyl)-1,3,4-thiadiazol-2-amine] gave an inhibition at 4 µg/mL of 84%. In the case of FC(F)(F)c1ccc(Nc2nnc(-c3ccccc3SCc3ccncc3)s2)cc1 [Compound 1-38, 5-(2-(Pyridin-4-yl)methylthiophenyl)-N-(4-trifluoromethylphenyl)-1,3,4-thiadiazole-2-amine], the inhibition at 4 µg/mL is reported as 53%. For CC(C)(C)c1ccc(Nc2nnc(-c3ccccc3SCc3ccncc3)s2)cc1 [Compound 1-39, N-(4-t-Butylphenyl)-5-(2-(pyridin-4-yl)methylthiophenyl)-1,3,4-thiadiazol-2-amine], the inhibition at 4 µg/mL was 43%. c1ccc(Nc2nnc(-c3ccccc3SCc3ccnc4ccccc34)o2)cc1 [Compound 1-40, N-Phenyl-5-(2-(quinolin-4-yl)methylthiophenyl)-1,3,4-oxadiazol-2-amine] was tested, and the inhibition at 4 µg/mL was 88%. Compound Clc1ccc(Nc2nnc(-c3ccccc3SCc3ccncc3)o2)cc1 [Compound 1-41, N-(4-Chlorophenyl)-5-(2-(pyridin-4-yl)methylthiophenyl)-1,3,4-oxadiazol-2-amine] has an inhibition at 4 µg/mL of 82%. CC(=O)Nc1cc(CSc2ccccc2-c2nnc(Nc3ccc(Cl)cc3)o2)ccn1 [Compound 1-45] was tested, and the inhibition at 4 µg/mL was 91%. With CC(=O)Nc1cc(CSc2ccccc2-c2nnc(Nc3cccc(C(F)(F)F)c3)o2)ccn1 [Compound 1-46, 5-(2-(2-Acetamidopyridin-4-yl)methylthiophenyl)-N-(3-trifluoromethylphenyl)-1,3,4-oxadiazol-2-amine] the inhibition at 4 µg/mL was 98%. For Nc1nccc(CSc2ccccc2-c2nnc(Nc3ccccc3)o2)n1 [Compound 1-47, 5-(2-(2-Aminopyrimidin-4-yl)methylthiophenyl)-N-phenyl-1,3,4-oxadiazol-2-amine], the inhibition at 4 µg/mL was 75%. Nc1cc(CSc2ncccc2-c2nnc(Nc3ccc(Cl)cc3)o2)ccn1 [Compound 1-91, 5-(2-(2-Aminopyridin-4-yl)methylthiopyridin-3-yl)-N-(4-chlorophenyl)-1,3,4-oxadiazol-2-amine hydrochloride] gave an inhibition at 4 µg/mL of 86%. In the case of Nc1cc(CSc2ncccc2-c2nnc(Nc3cccc(C(F)(F)F)c3)o2)ccn1 [Compound 1-92, 5-(2-(2-Aminopyridin-4-yl)methylthiopyridin-3-yl)-N-(3-trifluoromethylphenyl)-1,3,4-oxadiazol-2-amine hydrochloride], the inhibition at 4 µg/mL is reported as 98%.
